Earlier results as cited in PMC6219411 (Drug Design, Development and Therapy, 2018).

Conditions: oral preparation

With `CC(C)(C#N)c1cc(Cn2cncn2)cc(C(C)(C)C#N)c1` [anastrozole, Anastrozole] as the compound, how does the mean elimination half-life read?
Its mean elimination half-life is 40 to 50 h.

And the “time to maximum plasma concentrations” value?
The value was at most 2 h.
